Reference: patent US4570006A, “Amidine compound, process for producing same and anti-complement agent comprising same” (Torii & Co. Ltd., priority 1981, dated 1986)

Experiments:
Trypsin = target: T1, Trypsin (Bos taurus, UniProt P00760); experiment: Anti-trypsin activity (inhibition of TAME hydrolysis); type: biochemical; details: read-out: ID50, trypsin
T1 sequence (P00760 24-246): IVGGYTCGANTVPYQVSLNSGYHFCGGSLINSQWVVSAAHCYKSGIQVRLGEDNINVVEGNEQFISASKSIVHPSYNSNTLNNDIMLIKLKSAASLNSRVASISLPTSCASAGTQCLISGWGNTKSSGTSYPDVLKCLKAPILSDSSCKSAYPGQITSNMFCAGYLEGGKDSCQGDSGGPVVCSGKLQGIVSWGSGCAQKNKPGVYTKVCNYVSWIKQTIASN
Method: (§1) The anti-trypsin, anti-plasmin, anti-kallikrein and anti-thrombin activities were determined according to the method of Muramatsu et al. [M. Muramatsu, T. Onishi, S. Makino, Y. Hayashi and S. Fujii, J. of Biochem., 58, 214 (1965)]. The data summarized in Table 1 are expressed in terms of molar concentration (ID50) of the test compound which inhibits 50% of the activity of each enzyme to hydrolyze TAME (tosylarginine methyl ester). The compound No. corresponds to the compound number shown in Examples.

complement = experiment: Inhibition of complement mediated hemolysis; type: cell-based
Method: The complement mediated hemolysis is widely used as a means to determine the titration of complement. The principle of this method is based on the fact that hemolysis if caused by the activation of complement, when the latter is added to a complex (immune complex) of erythrocytes and the antibody thereof. The degree of hemolysis varies in proportion to the amount of complement added. Therefore, when a known amount of complement admixed with a Cl esterase inhibitor is used, the hemolysis must be suppressed in proportion to the inhibitory activity.
The anti-Cl esterase (Clr, Cls) activity was determined according to the method of Okamura et al. [K. Okamura, M. Muramatsu and B. Fujii, Biochem. Biophys. […] The figures in Table 2 have the following meanings: […]

Thrombin = Thrombin (Homo sapiens, UniProt P00734); experiment: biochemical; details: TAME hydrolysis; read-out: ID50, thrombin
Kallikrein = experiment: Anti-kallikrein activity (inhibition of TAME hydrolysis); type: biochemical; details: read-out: ID50, kallikrein
Method: as §1

Plasmin = Plasmin (Homo sapiens, UniProt P00747); experiment: Anti-plasmin activity (inhibition of TAME hydrolysis); type: biochemical; details: read-out: ID50, plasmin
Method: as §1

Cls = target: T2, Cls (Homo sapiens, UniProt P09871); experiment: Anti-Cl esterase activity, Cls (ATEE hydrolysis); type: biochemical; details: hydrolysis of ATEE; read-out: Anti-Cl activity, Cls (50% inhibition)
T2 sequence (P09871 438-688 limits assumed): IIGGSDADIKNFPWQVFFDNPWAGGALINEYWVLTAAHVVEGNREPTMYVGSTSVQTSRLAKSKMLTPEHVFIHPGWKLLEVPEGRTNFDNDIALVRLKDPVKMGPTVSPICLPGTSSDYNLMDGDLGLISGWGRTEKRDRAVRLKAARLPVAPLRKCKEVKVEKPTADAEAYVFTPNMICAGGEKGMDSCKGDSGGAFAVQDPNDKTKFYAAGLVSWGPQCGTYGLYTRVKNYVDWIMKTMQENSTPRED
T2 sequence (P09871 16-437 limits assumed): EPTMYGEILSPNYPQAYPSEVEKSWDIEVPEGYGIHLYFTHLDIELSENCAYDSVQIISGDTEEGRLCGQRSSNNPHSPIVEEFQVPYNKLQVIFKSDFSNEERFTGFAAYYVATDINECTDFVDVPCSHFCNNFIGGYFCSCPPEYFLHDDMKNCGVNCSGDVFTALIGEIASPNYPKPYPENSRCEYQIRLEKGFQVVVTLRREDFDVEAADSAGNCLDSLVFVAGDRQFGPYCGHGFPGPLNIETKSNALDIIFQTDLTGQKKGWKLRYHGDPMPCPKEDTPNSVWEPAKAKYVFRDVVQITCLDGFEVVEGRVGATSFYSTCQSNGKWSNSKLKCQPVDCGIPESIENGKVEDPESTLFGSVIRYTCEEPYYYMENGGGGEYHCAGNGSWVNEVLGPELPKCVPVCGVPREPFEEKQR
Method: The anti-Cl esterase (Clr, Cls) activity was determined according to the method of Okamura et al. [K. Okamura, M. Muramatsu and B. Fujii, Biochem. Biophys. […] The figures in Table 2 have the following meanings:
Cls: Molar concentration of the test compound which inhibits 50% of the ability of Cls to hydrolyse ATEE (acetyltyrosin ethyl ester).

Clr = target: T3, Clr (Homo sapiens, UniProt P00736); experiment: Anti-Cl esterase activity, Clr (AAME hydrolysis); type: biochemical; details: hydrolysis of AAME; read-out: Anti-Cl activity, Clr (ID50)
T3 sequence (P00736 464-705 limits assumed): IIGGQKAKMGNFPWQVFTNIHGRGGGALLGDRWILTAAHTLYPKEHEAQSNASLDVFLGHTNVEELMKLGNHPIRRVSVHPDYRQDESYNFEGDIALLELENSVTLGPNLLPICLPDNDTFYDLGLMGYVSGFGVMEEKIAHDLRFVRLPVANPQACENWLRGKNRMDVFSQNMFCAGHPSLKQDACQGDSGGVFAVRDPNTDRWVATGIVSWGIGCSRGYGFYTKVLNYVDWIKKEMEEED
T3 sequence (P00736 18-463 limits assumed): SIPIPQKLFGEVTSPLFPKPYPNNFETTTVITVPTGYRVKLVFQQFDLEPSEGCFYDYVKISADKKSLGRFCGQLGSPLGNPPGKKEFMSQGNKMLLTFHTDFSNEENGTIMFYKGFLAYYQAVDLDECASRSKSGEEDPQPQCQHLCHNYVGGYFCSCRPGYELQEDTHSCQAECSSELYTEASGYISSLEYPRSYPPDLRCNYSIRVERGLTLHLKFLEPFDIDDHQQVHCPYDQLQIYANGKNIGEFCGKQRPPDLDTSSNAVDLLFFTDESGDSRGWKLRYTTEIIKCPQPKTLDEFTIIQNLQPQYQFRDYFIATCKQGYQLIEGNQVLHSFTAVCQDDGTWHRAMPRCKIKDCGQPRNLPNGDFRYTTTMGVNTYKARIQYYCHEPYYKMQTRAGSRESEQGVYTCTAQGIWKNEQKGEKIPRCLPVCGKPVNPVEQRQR
Method: The anti-Cl esterase ([…]) activity was determined according to the method of Okamura et al. [K. Okamura, M. Muramatsu and B. Fujii, Biochem. Biophys.

Sequence of Plasmin (P00747 581-810 limits assumed, species assumed): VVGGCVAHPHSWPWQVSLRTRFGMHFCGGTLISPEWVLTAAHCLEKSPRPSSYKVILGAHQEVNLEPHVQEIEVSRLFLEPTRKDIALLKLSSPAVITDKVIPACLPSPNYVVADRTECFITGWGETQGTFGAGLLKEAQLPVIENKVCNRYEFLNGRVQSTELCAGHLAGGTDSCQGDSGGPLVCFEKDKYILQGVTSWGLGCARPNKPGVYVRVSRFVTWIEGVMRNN
Sequence of Plasmin (P00747 97-580 limits assumed, species assumed): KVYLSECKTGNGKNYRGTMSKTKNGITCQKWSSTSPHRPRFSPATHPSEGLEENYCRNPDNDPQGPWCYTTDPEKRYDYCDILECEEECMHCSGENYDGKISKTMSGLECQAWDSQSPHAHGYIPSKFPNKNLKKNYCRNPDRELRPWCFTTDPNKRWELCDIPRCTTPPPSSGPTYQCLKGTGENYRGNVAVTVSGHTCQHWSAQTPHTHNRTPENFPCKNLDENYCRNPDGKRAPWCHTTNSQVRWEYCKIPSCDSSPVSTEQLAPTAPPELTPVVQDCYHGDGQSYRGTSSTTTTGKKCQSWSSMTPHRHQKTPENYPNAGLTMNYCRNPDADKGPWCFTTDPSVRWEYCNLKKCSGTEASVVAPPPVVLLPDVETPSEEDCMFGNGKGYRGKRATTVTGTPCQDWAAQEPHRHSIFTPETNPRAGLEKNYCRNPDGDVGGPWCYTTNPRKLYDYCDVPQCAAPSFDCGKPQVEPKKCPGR

| Compound | IC50 (Trypsin) | IC50 (Thrombin) | IC50 (Kallikrein) | IC50 (Plasmin) | IC50 (Cls) | IC50 (Clr) | Inhibition of complement mediated hemolysis (%) (complement; compound at 1 × 10^-4) | Inhibition of complement mediated hemolysis (%) (complement; compound at 1 × 10^-5) | Inhibition of complement mediated hemolysis (%) (complement; compound at 1 × 10^-6) | Inhibition of complement mediated hemolysis (%) (complement; compound at 1 × 10^-7) |
| --- | --- | --- | --- | --- | --- | --- | --- | --- | --- | --- |
| N=C(N)c1ccc(OC(=O)CCCCCN)c(C(=O)c2ccccc2)c1 [Compound 13, 4-amidino-2-benzoylphenyl 6-aminocaproate] | > 10 µM | > 10 µM | > 10 µM | > 10 µM | > 10 µM | > 10 µM | 15.9% | 9.8% | 0% | 0% |
| COc1cc(C(=N)N)ccc1OC(=O)CCCCCNC(=N)N [Compound 14, 4-amidino-2-methoxyphenyl 6-guanidinocaproate] | 10 µM | 10 µM | 10 µM | 10 µM | > 10 µM | > 10 µM | 63.6% | 16.2% | 7.0% | 0% |
| COc1cc(C(=N)N)ccc1OC(=O)[C@H]1CC[C@H](CNC(=O)OCc2ccccc2)CC1 [Compound 16] | 10 µM | 1 µM | 5 µM | 0.3 µM | 0.8 µM | > 10 µM | 91.2% | 61.8% | 17.4% | 3.4% |
| COc1cc(C(=N)N)ccc1OC(=O)[C@H]1CC[C@H](CN)CC1 [Compound 17] | > 10 µM | > 10 µM | > 10 µM | > 10 µM | > 10 µM | > 10 µM | 98.6% | 78.2% | 20.4% | 0% |
| COC(=O)c1cc(C(=N)N)ccc1OC(=O)[C@H]1CC[C@H](CNC(=O)OCc2ccccc2)CC1 [Compound 18, 4-amidino-2-methoxycarbonylphenyl trans-4-benzyloxycarbonylaminomethylcyclohexanecarboxylate] | 3 µM | 4 µM | 1 µM | 0.5 µM | 2 µM | > 10 µM | 98.8% | 73.2% | 11.4% | 2.2% |
| COC(=O)c1cc(C(=N)N)ccc1OC(=O)[C@H]1CC[C@H](CN)CC1 [Compound 19, 4-amidino-2-methyoxycarbonylphenyl trans-4-aminomethylcyclohexanecarboxylate] | > 10 µM | > 10 µM | > 10 µM | > 10 µM | > 10 µM | > 10 µM | 99.2% | 83.4% | 15.0% | 5.0% |

Second part, led by results:

| IC50 (Trypsin) | IC50 (Thrombin) | IC50 (Kallikrein) | IC50 (Plasmin) | IC50 (Cls) | IC50 (Clr) | Compound | Inhibition of complement mediated hemolysis (%) (complement; compound at 1 × 10^-4) | Inhibition of complement mediated hemolysis (%) (complement; compound at 1 × 10^-5) | Inhibition of complement mediated hemolysis (%) (complement; compound at 1 × 10^-6) | Inhibition of complement mediated hemolysis (%) (complement; compound at 1 × 10^-7) |
| --- | --- | --- | --- | --- | --- | --- | --- | --- | --- | --- |
| 0.7 µM | 2 µM | 1 µM | 0.3 µM | 0.9 µM | 5 µM | CC=CC=CC(=O)Oc1ccc(C(=N)N)cc1C(=O)OC [Compound 5] | 100% | 97.0% | 47.2% | 3.0% |
| 0.2 µM | 0.08 µM | 0.3 µM | 0.4 µM | 0.3 µM | 1 µM | CC=CC=CC(=O)Oc1ccc(C(=N)N)cc1C(=O)c1ccccc1 [Compound 6] | 100% | 97.7% | 52.9% | 5.0% |
| > 10 µM | > 10 µM | > 10 µM | > 10 µM | – | > 10 µM | N=C(N)c1ccc(OC(=O)CCN)c(C(=O)c2ccccc2)c1 [Compound 11, 4-amidino-2-benzoylphenyl 3-aminopropionate] | 17.4% | 2.5% | 2.5% | 3.5% |
| 6 µM | 4 µM | > 10 µM | > 10 µM | 5 µM | > 10 µM | N=C(N)c1ccc(OC(=O)CCCCCNC(=O)OCc2ccccc2)c(C(=O)c2ccccc2)c1 [Compound 12, 4-amidino-2-benzoylphenyl 6-benzyloxycarbonylaminocaproate] | 91.3% | 57.8% | 15.0% | 3.8% |
| 1 µM | 0.5 µM | 0.6 µM | 0.6 µM | 0.3 µM | > 10 µM | N=C(N)c1ccc(OC(=O)[C@H]2CC[C@H](CNC(=O)OCc3ccccc3)CC2)c(C(=O)c2ccccc2)c1 [Compound 20] | 96.8% | 80.3% | 13.0% | 1.8% |
| 10 µM | 0.2 µM | 60 µM | 20 µM | 5 µM | 7 µM | COc1cc(C(=N)N)ccc1OC(=O)c1ccccc1 [Compound 23, 4-amidino-2-methoxyphenyl benzoate] | – | – | – | – |
| 0.03 µM | < 0.01 µM | 0.4 µM | 0.2 µM | – | 1 µM | CSc1ccc(C(=O)Oc2ccc(C(=N)N)cc2C(=O)c2ccccc2)cc1 [Compound 49] | 83.8% | 94.6% | 97.5% | 75.1% |
